Assay results as given in ChEMBL document CHEMBL5518171, “Curcumin hybrid molecules for the treatment of Alzheimer's disease: Structure and pharmacological activities” (Eur J Med Chem, 2024).

Columns and labels:
[1] = Antioxidant activity assessed as DPPH radical scavenging activity by spectrophotometric analysis; assay type: functional
N2a = test: Antiproliferative activity against mouse Neuro2a cells assessed as reduction in cell viability incubated for 72 hrs by MTT assay; assay type: functional, cell-based
[2] = molecular target: T1, Amine oxidase [flavin-containing] B (Homo sapiens, UniProt P27338); test: Inhibition of human MAO-B using p-tyramine as substrate at 100 uM incubated for 15 mins by Amplex red and horseradish peroxidase based fluorescence assay; conditions: 0.25 h
T1 sequence (P27338 whole entry): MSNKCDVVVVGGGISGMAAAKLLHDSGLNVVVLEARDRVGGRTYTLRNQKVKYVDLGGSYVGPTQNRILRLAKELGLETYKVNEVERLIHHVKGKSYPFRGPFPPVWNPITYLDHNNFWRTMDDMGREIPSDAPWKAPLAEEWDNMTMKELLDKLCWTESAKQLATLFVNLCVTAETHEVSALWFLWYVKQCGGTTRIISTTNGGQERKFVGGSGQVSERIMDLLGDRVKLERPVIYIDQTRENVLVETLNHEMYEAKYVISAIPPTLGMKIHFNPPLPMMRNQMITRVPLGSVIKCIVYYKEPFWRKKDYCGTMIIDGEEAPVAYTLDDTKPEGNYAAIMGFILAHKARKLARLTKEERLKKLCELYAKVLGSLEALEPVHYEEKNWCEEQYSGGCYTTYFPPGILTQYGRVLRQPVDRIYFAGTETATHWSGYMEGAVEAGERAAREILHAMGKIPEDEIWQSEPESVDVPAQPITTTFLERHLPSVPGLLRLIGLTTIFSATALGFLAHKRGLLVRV

[3] = molecular target: Cholinesterase (Equus caballus) (UniProt P81908); test: Inhibition of equine BChE at 100 uM by Ellman's method relative to control
[4] = molecular target: T2, Amine oxidase [flavin-containing] A (Homo sapiens, UniProt P21397); test: Inhibition of human MAO-A using p-tyramine as substrate at 100 uM incubated for 15 mins by Amplex red and horseradish peroxidase based fluorescence assay relative to control; conditions: 0.25 h
T2 sequence (P21397 whole entry): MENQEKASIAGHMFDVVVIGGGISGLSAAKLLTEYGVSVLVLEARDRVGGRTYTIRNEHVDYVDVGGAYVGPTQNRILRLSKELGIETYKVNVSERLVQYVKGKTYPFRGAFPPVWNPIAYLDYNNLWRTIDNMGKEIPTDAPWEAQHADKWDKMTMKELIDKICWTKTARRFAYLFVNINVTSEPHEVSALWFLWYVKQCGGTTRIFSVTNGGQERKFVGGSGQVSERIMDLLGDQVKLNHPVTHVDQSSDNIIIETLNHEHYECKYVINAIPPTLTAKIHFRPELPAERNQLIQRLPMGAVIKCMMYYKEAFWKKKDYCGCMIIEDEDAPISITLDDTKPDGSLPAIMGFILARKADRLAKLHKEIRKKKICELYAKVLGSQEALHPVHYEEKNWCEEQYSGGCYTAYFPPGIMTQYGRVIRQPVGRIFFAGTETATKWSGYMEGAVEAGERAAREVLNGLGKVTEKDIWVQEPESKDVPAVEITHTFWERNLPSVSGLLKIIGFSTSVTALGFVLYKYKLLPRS

[5] = Neuroprotective activity against human MC65 cells assessed as increase in cell viability incubated for 72 hrs in absence of tetracycline by MTT assay; assay type: functional, cell-based; conditions: MC65, 72 h
[6] = Antioxidant activity assessed as ROS scavenging activity; assay type: functional
Cholinesterase = Cholinesterase (Equus caballus, UniProt P81908); test: Inhibition of equine BChE using BTCh as substrate incubated for 5 mins by Ellmans method
Acetylcholinesterase = Acetylcholinesterase (Electrophorus electricus, UniProt O42275)
Description: Inhibition of Electric eel AChE using acetylthiocholine iodide as substrate incubated for 15 mins by Ellman's method

[7] = Antioxidant activity assessed as DPPH radical scavenging activity measured after 30 mins by UV-visible spectrophotometric analysis; assay type: functional
[8] = Antioxidant activity assessed as DPPH radical scavenging activity st 80 uM incubated for 1 hr by DPPH assay; assay type: functional
SH-SY5Y = test: Antioxidant activity in human SH-SY5Y cells assessed as increase in intracellular GSH level at 10 uM incubated for 24 hrs by […] staining based fluorescence analysis; assay type: functional
[9] = Antioxidant activity assessed as DPPH radical scavenging activity at 80 uM incubated for 1 hr by DPPH assay relative to control; assay type: functional

Sequence of Cholinesterase (Equus caballus) (P81908 whole entry): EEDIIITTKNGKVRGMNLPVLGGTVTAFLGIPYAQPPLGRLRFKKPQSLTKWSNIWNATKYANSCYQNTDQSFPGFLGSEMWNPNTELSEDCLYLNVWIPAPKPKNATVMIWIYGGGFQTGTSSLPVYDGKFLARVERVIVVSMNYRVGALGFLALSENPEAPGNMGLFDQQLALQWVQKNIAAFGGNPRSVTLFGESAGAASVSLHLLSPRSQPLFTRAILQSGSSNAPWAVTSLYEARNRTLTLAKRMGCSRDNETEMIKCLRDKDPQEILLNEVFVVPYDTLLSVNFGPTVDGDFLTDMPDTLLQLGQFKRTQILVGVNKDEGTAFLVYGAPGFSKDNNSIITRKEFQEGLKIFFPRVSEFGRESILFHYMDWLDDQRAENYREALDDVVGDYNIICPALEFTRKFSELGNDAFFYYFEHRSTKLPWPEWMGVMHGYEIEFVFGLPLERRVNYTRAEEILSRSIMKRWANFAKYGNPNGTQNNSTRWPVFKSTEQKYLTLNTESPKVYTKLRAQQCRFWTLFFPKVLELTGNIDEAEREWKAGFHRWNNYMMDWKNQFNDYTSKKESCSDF
Sequence of Cholinesterase (P81908 whole entry): as above
Sequence of Acetylcholinesterase (O42275 whole entry): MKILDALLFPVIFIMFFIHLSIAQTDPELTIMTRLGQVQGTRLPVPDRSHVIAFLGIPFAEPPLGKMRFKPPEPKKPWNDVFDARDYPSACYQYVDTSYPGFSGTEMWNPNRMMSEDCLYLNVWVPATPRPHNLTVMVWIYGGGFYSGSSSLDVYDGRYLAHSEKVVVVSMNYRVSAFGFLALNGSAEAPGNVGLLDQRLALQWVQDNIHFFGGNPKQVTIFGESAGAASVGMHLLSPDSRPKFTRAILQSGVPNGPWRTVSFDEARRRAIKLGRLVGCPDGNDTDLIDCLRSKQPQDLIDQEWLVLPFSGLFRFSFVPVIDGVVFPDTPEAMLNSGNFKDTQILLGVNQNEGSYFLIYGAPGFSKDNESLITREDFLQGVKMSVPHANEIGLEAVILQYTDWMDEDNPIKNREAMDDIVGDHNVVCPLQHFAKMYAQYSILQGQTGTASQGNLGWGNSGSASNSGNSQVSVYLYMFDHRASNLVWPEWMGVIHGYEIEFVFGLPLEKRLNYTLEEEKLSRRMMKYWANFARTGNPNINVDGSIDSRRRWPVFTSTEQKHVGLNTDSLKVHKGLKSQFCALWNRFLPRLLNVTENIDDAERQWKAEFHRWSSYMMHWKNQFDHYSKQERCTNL

## CCCCN1C(=O)/C(=C(O)/C=C/c2ccc(O)c(OC)c2)C(C(=O)OC)=C1C
[1]
  Activity: 8.87%

## COc1ccc(/C=C/C(=O)CCCCN2CC[C@@]34C=C[C@H](O)C[C@@H]3Oc3c(OC)ccc(c34)C2)cc1
N2a
  IC50: 50000 nM

## O=C(/C=C/c1cc(O)c(O)cc1O)CC(=O)/C=C/c1cc2ccc(O)c(O)c2oc1=O
[2]
  inhibition at 100 µM: 45.8%
[3]
  inhibition: 43.3%
[4]
  inhibition at 100 µM: 60.9%

## COc1ccc2[nH]cc(CCNC(=O)CC(=O)/C=C/c3ccc(O)c(OC)c3)c2c1
[5]
  EC50: 134 nM

## COc1ccc2[nH]cc(CCNC(=O)CC(=O)/C=C/c3ccc(O)cc3)c2c1
[5]
  EC50: 23.1 nM

## CCCCN1C(=O)/C(=C(O)/C=C/c2cc(OC)c(OC)c(OC)c2)C(C(=O)OCC)=C1C
[6]
  Activity: 61%

## COc1cc(/C=C/C(=O)OCCCCCN(C)Cc2cccc(OC(=O)N(C)C)c2)ccc1O
Cholinesterase
  IC50: 590 nM
Acetylcholinesterase
  IC50: 19.7 nM

## CCCCN1C(=O)/C(=C(O)/C=C/c2cc(OC)c(OC)c(OC)c2)C(C(=O)OC)=C1C
[7]
  Activity: 10.8%

## O=C(/C=C/c1ccc(O)c(O)c1)NN=C1CCN(Cc2ccccc2)CC1
[8]
  Activity: 45%
SH-SY5Y
  Activity: 33%
[9]
  Activity: 45%

## COc1cc(/C=C/C(=O)NN=C2CCN(Cc3ccccc3)CC2)ccc1O
[8]
  Activity: 53.4%
SH-SY5Y
  Activity: 34%
[9]
  Activity: 53.4%
